Reference: patent US20240368139A1, “NOVEL MODULATORS OF EHMT1 AND EHMT2 AND THERAPEUTIC USE THEREOF” (Tango Therapeutics, Inc., priority 2021, published 2024)

Key:
H3K9me2 in HCT116 cells = test: HCT116 H3K9me2 in-cell western assay; assay type: cell-based; settings: Homo sapiens, HCT-116, 72 h, HCT116 cells, 72 hours incubation; read-out: H3K9me2 ICW IC50
Outline: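 H3K9me2 signal (800 nm) was normalized to DRAQ5 DNA stain (700 nm) in an in-cell western. Cells were fixed with paraformaldehyde and probed overnight at 4° C with primary antibody.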

human EHMT1 982-1266 = biological target: T1, human EHMT1 982-1266 (Homo sapiens, UniProt Q9H9B1); test: EHMT1 enzyme assay on histone peptide substrate (3H-SAM SPA); settings: EHMT1 IC50, recombinant human EHMT1 982-1266, histone peptide substrate
T1 sequence (Q9H9B1 982-1266): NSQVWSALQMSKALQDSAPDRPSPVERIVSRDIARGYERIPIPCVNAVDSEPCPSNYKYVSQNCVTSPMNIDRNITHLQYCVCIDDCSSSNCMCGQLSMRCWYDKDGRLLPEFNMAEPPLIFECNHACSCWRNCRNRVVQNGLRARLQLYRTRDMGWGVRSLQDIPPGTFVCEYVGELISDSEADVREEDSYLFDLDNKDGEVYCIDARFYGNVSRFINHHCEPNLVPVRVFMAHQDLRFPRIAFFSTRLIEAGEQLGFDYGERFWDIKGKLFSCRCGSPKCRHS

human EHMT2 913-1193 = biological target: T2, human EHMT2 913-1193 (Homo sapiens, UniProt Q96KQ7); test: EHMT2 enzyme assay on histone peptide substrate (3H-SAM SPA); settings: EHMT2 IC50, recombinant human EHMT2 913-1193, histone peptide substrate
T2 sequence (Q96KQ7 913-1193): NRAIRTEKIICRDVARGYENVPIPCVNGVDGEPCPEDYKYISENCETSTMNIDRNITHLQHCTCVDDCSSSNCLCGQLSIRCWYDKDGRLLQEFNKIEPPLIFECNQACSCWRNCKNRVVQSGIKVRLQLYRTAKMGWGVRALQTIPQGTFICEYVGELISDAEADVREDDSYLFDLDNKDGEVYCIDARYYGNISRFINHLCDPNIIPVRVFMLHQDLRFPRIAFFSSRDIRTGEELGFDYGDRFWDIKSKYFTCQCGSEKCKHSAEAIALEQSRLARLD

Row | IC50 (H3K9me2 in HCT116 cells) [nM] | IC50 (human EHMT1 982-1266) [nM] | IC50 (human EHMT2 913-1193) [nM] | Compound
1 | < 100 | < 100 | < 100 | CNc1nc(Nc2cc3c(c(C4=CCNCCC4)c2F)OCC3)nc(C)c1F [Compound 242]
2 | < 100 | < 100 | < 100 | CNc1cc(Nc2cc3c(c(C4=CCNCCC4)c2F)OCCC3)nc(C)c1F [Compound 243]
3 | 100 to 500 | 100 to 500 | 100 to 500 | CNc1cc(CC(F)(F)F)nc(Nc2cc3c(c(C4=CCNCCC4)c2)OCC3)c1 [Compound 247]
4 | < 100 | < 100 | < 100 | [2H]Cc1cc(NC)nc(Nc2cc3c(c(C4=CCNCCC4)c2)OCCC3)n1 [Compound 248]
5 | < 100 | < 100 | < 100 | [2H]Cc1cc(NC([2H])([2H])[2H])nc(Nc2cc3c(c(C4=CCNCCC4)c2)OCCC3)n1 [Compound 250]
6 | < 100 | < 100 | < 100 | [2H]Cc1cc(NC([2H])([2H])[2H])nc(Nc2cc3c(c(C4=CCNCCC4)c2)OCO3)n1 [Compound 252]
7 | < 100 | < 100 | < 100 | CNc1cc(Nc2cc3c(c(C4=CCNCCC4)c2F)OCC3)nc(C)c1F [Compound 257]
8 | 100 to 500 | < 100 | < 100 | [2H]C([2H])([2H])CNc1cc(C)nc(Nc2cc3c(c(C4=CCNCCC4)c2)OCCC3)n1 [Compound 263]
9 | < 100 | < 100 | < 100 | [2H]C([2H])([2H])Nc1cc(C)nc(Nc2cc3c(c(C4=CCNCCC4)c2)OCCC3)n1 [Compound 264]

The next lines start with the molecule.

Row | Compound | IC50 (H3K9me2 in HCT116 cells) [nM] | IC50 (human EHMT1 982-1266) [nM] | IC50 (human EHMT2 913-1193) [nM]
10 | [2H]Cc1nc(Nc2cc3c(c(C4=CCNCCC4)c2)OCO3)nc(NC([2H])([2H])[2H])c1F [Compound 240] | 100 to 500 | 100 to 500 | 100 to 500
11 | CCNc1nc(Nc2cc3c(c(C4=CCN(C)CCC4)c2F)OCC3)nc(C)c1F [Compound 241] | 100 to 500 | 100 to 500 | 500 to 2000
12 | [2H]C([2H])([2H])CNc1cc(C)nc(Nc2cc3c(c(C4=CCN(C)CCC4)c2)OCO3)n1 [Compound 244] | 100 to 500 | < 100 | 100 to 500
13 | CNc1nc(Nc2cc3c(c(C4=CCN(C)CCC4)c2F)OCC3)nc(C)c1F [Compound 245] | 100 to 500 | 100 to 500 | 500 to 2000
14 | [2H]C([2H])([2H])CNc1cc(C)nc(Nc2cc3c(c(C4=CCNCCC4)c2)OCO3)n1 [Compound 246] | < 100 | < 100 | < 100
15 | [2H]Cc1cc(NC([2H])([2H])[2H])nc(Nc2cc3c(c(C4=CCN(C)CCC4)c2)OCCC3)n1 [Compound 251] | < 100 | < 100 | < 100
16 | [2H]Cc1cc(NC([2H])([2H])[2H])nc(Nc2cc3c(c(C4=CCN(C)CCC4)c2)OCO3)n1 [Compound 254] | < 100 | < 100 | < 100
17 | CNc1cc(Nc2cc3c(c(C4=CCN(C)CCC4)c2F)OCC3)nc(C)c1F [Compound 255] | < 100 | < 100 | < 100
18 | [2H]C([2H])([2H])Nc1nc(Nc2cc3c(c(C4=CCNCCC4)c2F)OCC3)nc(C)c1F [Compound 256] | < 100 | < 100 | < 100
19 | [2H]C([2H])([2H])CNc1nc(Nc2cc3c(c(C4=CCNCCC4)c2F)OCC3)nc(C)c1F [Compound 258] | 100 to 500 | 100 to 500 | 100 to 500
20 | [2H]C([2H])([2H])CNc1cc(C)nc(Nc2cc3c(c(C4=CCN(C)CCC4)c2)OCCC3)n1 [Compound 259] | 100 to 500 | < 100 | 100 to 500
21 | [2H]Cc1cc(NCC([2H])([2H])[2H])nc(Nc2cc3c(c(C4=CCN(C)CCC4)c2F)OCC3)n1 [Compound 260] | < 100 | < 100 | < 100
22 | [2H]C([2H])([2H])CNc1nc(Nc2cc3c(c(C4=CCN(C)CCC4)c2F)OCC3)nc(C)c1F [Compound 261] | 100 to 500 | 100 to 500 | 500 to 2000
23 | [2H]Cc1cc(NCC([2H])([2H])[2H])nc(Nc2cc3c(c(C4=CCNCCC4)c2F)OCC3)n1 [Compound 262] | < 100 | < 100 | < 100
